Reference: US12187696B2, “Urea motif containing compounds and derivatives thereof as antibacterial drugs” (Technische Universität München, priority 2016, dated 2025)
Converted amounts (≈) assume the structure as drawn. “Also recorded” adds a separate entry of the source.

How the values were obtained:
[1] = system: S. aureus NCTC 8325 persister cells; assay: Persister cell assay I; assay type: cell-based; details: gentamicin-selected persisters in PBS; 70 h; 2.4 μM PK/X17-1-150, 24 μM sorafenib, 5 μg/mL ciprofloxacin
MRSA ATCC 33591 = assay: Neutropenic murine thigh model; assay type: in vivo, S. aureus; details: 20 mg/kg orally 30 min, 4 and 8 h after inoculation; vs sham-treated mice
Procedure: PK/X17-1-150 (20 mg/kg) and the corresponding vehicle were administered orally after 30 min, 4 and 8 h after bacterial inoculation, whereas levofloxacin (5 mg/kg) and the corresponding vehicle were administered intraperitoneally after 2, 6 and 10 h after bacterial inoculation. N=6 for vehicle i.p., levofloxacin i.p. and for PK/X17-1-150; n=5 for vehicle p.o. Data are expressed as mean values±SD. **, p<0.01; ***, p<0.001.

[2] = system: S. aureus DSM 4910 (NCTC 8325) biofilm; assay: Minimum biofilm eradication concentration (MBEC) assay; assay type: cell-based
Procedure: To each well of a flat-bottomed 96-well plate (BD Biosciences, BD 351172) 200 μL of overnight culture of bacteria diluted 1:100 in media is added. Plates are incubated for 24 hours at 37° C. to establish biofilms. After 24 hours, the wells are carefully emptied by inverting the plate and gently shaking. A pre-mixed solution of media and compound stock solution is added to each well and plates are incubated at 37° C. […] 100 μL of supernatant from each well are transferred to a fresh 96-well flat bottomed plate and the OD at 595 nm is measured using a plate reader (POLARstar Omega, BMG Labtech). Concentrations of compound yielding a regrown OD of less than 0.1 correspond to the MBEC. Six replicates are completed for each concentration of compound as well as positive and negative controls. […] DMSO was used as negative control compound, Oxacillin was used as positive control compound. Levels of crystal violet retained were measured spectrophotometrically at an OD of 595 nm. Concentrations of compound yielding a regrown OD of less than 0.1 correspond to the MBEC. Six replicates are completed for each concentration of compound as well as controls. […] Levels of crystal violet retained were measured spectrophotometrically at an OD of 595 nm. […]

[3] = system: Enterobacter cloacae subsp. Cloacae; assay: Minimal inhibitory concentration (MIC) assay; assay type: cell-based; details: B medium
S. aureus NCTC8325 = assay: Analysis of S. aureus NCTC8325 secretome; details: 0.5×MIC (PK/X17-1-150 0.15 μM, sorafenib 1.5 μM), 1.5 h
S. aureus NCTC 8325 = assay type: cell-based
[4] = system: Mycobacterium smegmatis mc^2 155; assay: Minimal inhibitory concentration (MIC) assay; assay type: cell-based; details: Mycolicibacterium smegmatis, MC^2155, LB medium
S. aureus = assay: Murine bloodstream infection model; assay type: in vivo; details: S. aureus-infected mice, 20 mg/kg, compared to vehicle control
Procedure: Bacterial loads in the heart (left) and liver (right) of S. aureus-infected mice treated with 20 mg/kg of PK/[…]-1-150 (squares) or vehicle alone (circles). Each symbol represents an individual mouse. Compilation data from three independent experiments are presented. N=14 for vehicle and PK/[…]-1-150. Horizontal lines represent the mean values. **, p<0.01.

[5] = system: Staphylococcus aureus Bk97296; assay: Minimal inhibitory concentration (MIC) assay; assay type: cell-based; details: Staphylococcus aureus Bk97296 (clinical isolate); B medium
[6] = system: Staphylococcus aureus VA417350; assay: Minimal inhibitory concentration (MIC) assay; assay type: cell-based; details: Staphylococcus aureus VA417350 (clinical isolate); B medium
[7] = system: Staphylococcus aureus VA402923; assay: Minimal inhibitory concentration (MIC) assay; assay type: cell-based; details: Staphylococcus aureus VA402923 (clinical isolate); B medium
[8] = system: Staphylococcus aureus VA412350; assay: Minimal inhibitory concentration (MIC) assay; assay type: cell-based; details: Staphylococcus aureus VA412350 (clinical isolate); B medium
[9] = system: A549, HeLa, HepG2 and NIH/3T3 cells; assay: Cytotoxicity assay (MTT); assay type: cell-based, human; details: 24 h incubation, various cell lines
Procedure: The MTT assay was performed in 96 well plates. A549, HeLa and HepG2 cells were seeded with 4000 cells/well, whereas NIH/3T3 cells were seeded with 2000 cells/well. Cells were grown to 30-40% confluence at 37° C. and 5% CO2 over a time span of 24 h. The medium was removed and 100 μL medium/well containing varying concentrations of the respective compound and a final DMSO concentration of 0.1% were added to the cells in triplicates and incubated at 37° C. and 5% CO2 for 24 h. 20 μL Thiazolyl blue tetrazolium bromide (5 mg/mL in PBS, Sigma Aldrich) were added to the cells and incubated at 37° C. and 5% CO2 for 4 h until complete consumption was observed. After removal of the medium, the resulting formazan was dissolved in 200 μL DMSO. Optical density was measured at 570 nm (562 nm) and background subtracted at 630 nm (620 nm) by a TECAN Infinite M200 Pro.

Compound	viable persister cells (CFU/mL) vs DMSO control [1]	thigh bacterial load reduction (MRSA ATCC 33591)	biofilm eradication effect ([2]; S. aureus DSM 4910, after 20 h of compound treatment)	biofilm eradication effect ([2]; S. aureus DSM 4910, after 70 h of compound treatment)	MIC [3]	secretome (secreted proteins) vs DMSO (S. aureus NCTC8325)	resistance development on serial passaging (S. aureus NCTC 8325; S. aureus NCTC 8325, subinhibitory levels, 27 days, listed as PK/X17-1-150)	activity against S. aureus that developed resistance against sorafenib (S. aureus NCTC 8325; preliminary results)	MIC [4]	reduction of bacterial load in heart (S. aureus)	reduction of bacterial load in liver (S. aureus)	MIC [5]	MIC [6]	MIC [7]	MIC [8]	cytotoxicity (MTT) [9]	first signs of lower sensitivity (S. aureus NCTC 8325; serial passaging of S. aureus)	increase of minimal inhibitory concentration (factor) (S. aureus NCTC 8325; serial passaging, within the first 10 days)
O=C(Nc1ccc2c(c1)OC(F)(F)O2)Nc1ccc(Cl)c(C(F)(F)F)c1 [Example 4, 1-(4-Chloro-3-(trifluoromethyl)phenyl)-3-(2,2-difluorobenzo[d][1,3]dioxol-5-yl)urea]	significant reduction of viable cells	1 log10 cfu/g thigh	strongest effect	most potent effects	> 100 µM	Essential cell wall biosynthesis proteins are among the processed proteins; also recorded: strong increase of extracellular proteins	did not induce resistance; also recorded: no resistant development	still active	1 µM (≈ 0.395 µg/mL)	2 log cfu	2 log cfu	0.3 µM (≈ 0.118 µg/mL)	0.3 µM (≈ 0.118 µg/mL)	0.3 µM (≈ 0.118 µg/mL)	0.3 µM (≈ 0.118 µg/mL)	at concentrations higher compared to the antibacterial MICs	–	–
CNC(=O)c1cc(Oc2ccc(NC(=O)Nc3ccc(Cl)c(C(F)(F)F)c3)cc2)ccn1 [Sorafenib, reference compound]	significant reduction of viable cells	–	–	–	> 100 µM	SpsB substrates are secreted; also recorded: strong increase of extracellular proteins	–	–	6 µM (≈ 2.79 µg/mL)	–	–	5 µM (≈ 2.32 µg/mL)	5 µM (≈ 2.32 µg/mL)	5 µM (≈ 2.32 µg/mL)	5 µM (≈ 2.32 µg/mL)	–	≤ 5 days	40
